Molecular target: ATP-binding cassette sub-family C member 2 (Homo sapiens, UniProt Q92887)
Test: TP_TRANSPORTER: Immunoblot analysis in Caco-2 cells
Format: functional, cell-based

ATP-binding cassette sub-family C member 2, sequence (Q92887 whole entry): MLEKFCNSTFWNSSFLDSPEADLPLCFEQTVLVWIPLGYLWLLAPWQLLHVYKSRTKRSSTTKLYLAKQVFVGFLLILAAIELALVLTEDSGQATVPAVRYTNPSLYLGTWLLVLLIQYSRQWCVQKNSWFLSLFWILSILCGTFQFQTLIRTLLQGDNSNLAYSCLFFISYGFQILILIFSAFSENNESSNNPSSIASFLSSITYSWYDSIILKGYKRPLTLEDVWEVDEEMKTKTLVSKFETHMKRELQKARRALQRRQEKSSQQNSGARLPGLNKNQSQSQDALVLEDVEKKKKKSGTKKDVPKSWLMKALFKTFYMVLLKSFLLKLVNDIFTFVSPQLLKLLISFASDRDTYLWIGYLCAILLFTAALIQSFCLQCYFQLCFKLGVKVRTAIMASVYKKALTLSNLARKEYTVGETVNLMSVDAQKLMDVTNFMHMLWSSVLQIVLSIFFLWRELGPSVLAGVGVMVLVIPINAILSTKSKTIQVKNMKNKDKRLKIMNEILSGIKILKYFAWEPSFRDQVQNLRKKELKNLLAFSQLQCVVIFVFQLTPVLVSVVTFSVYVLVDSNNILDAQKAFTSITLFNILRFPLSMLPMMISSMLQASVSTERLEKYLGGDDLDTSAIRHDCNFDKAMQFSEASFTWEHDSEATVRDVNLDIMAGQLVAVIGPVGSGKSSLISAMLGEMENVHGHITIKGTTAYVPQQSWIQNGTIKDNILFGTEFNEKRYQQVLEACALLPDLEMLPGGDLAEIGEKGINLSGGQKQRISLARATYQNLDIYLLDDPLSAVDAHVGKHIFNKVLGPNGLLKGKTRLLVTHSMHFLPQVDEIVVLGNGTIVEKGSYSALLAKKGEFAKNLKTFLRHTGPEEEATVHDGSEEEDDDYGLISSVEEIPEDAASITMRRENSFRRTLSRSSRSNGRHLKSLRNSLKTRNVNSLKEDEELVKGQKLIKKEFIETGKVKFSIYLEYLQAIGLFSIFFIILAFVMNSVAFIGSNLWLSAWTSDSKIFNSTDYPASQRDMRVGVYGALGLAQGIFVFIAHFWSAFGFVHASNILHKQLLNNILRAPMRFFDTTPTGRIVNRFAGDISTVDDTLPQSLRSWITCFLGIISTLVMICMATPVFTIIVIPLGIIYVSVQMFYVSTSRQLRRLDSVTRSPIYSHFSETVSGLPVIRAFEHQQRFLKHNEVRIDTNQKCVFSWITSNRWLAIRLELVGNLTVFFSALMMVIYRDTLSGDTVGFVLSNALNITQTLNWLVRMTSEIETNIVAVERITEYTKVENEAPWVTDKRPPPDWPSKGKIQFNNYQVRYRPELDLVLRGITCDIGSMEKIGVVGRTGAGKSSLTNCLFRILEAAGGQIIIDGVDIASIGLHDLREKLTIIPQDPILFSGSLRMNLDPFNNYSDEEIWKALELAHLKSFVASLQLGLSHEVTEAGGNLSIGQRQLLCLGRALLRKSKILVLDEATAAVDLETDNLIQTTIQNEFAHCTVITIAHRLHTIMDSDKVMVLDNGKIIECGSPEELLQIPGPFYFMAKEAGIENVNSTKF

O=c1c(O)c(-c2ccc(O)c(O)c2)oc2cc(O)cc(O)c12 [QUERCETIN]
Activity: inducer [+]
